This passage reports viability results from patent publication US11498920B2, “4-(1H-imidazol-5-yl)-1H-pyrrolo[2, 3-b] pyridines for use in the treatment of leukaemias, lymphomas and solid tumors” (MASARYKOVA UNIVERZITA, priority 2018, dated 2022).

The subject of assay [1] is primary CLL cells. The experiment in a line: Cytotoxicity, TMRE flow cytometry viability, primary CLL cells (Example II.1). The class given is cell-based. The conditions noted are these: Homo sapiens, CLL cell, 6 hours, TMRE positive cells normalized to control, ratio to PF670462, <1 = higher cytotoxicity than PF670462, read-out: Viability of cells, Compound of formula I (100 μM), relative to PF670462 (100 μM), CLL primary cells. The procedure:
(§1) The leukemia and lymphoma-derived cell lines [MEC-1 cell line (derived from chronic lymphocytic leukemia—CLL), Nalm-16 (acute lymphocytic leukemia—ALL), K562 (chronic myeloid leukemia—CML), HL-60 (acute myeloid leukemia—AML), Maver-1 and Mino (mantle cell lymphoma—MCL), BL-41 (Burkitt lymphoma—BL), WSU-NHL (follicular lymphoma—FL), SUDHL (diffuse large B-cell lymphoma—DLBCL)], primary CLL cells and nonmalignant control primary cells were cultured in suspension in flasks under the following conditions: RPMI 1640 medium (Hyclone) supplemented with 10% fetal bovine serum (FBS, Gibco) and 1% penicillin/streptomycin (Life Technologies), 37° C., 5% CO2 and 95% relative humidity, with optimal culture cell density 5×10^6 cells/mL in case of primary cells and 0.5-1×10^6 cells/mL in case of cell lines. The adherent cell lines [A375 (derived from malignant melanoma), MDA-MB-231 and MCF-7 (breast cancer), MIA-PA-CA and PANC1 (pancreatic cancer), PC3 (prostate cancer), OVCAR4 (ovarian cancer) and HEPG2 (hepatocellular carcinoma)] were cultured on plates under the same conditions using RPMI1640 or DMEM medium (Gibco) according to instructions provided by the distributor (DSMZ/ATCC).
(§2) Cytotoxicity of compounds of formula I was tested in two models representative for leukemia (primary CLL cells) and lymphoma (Maver-1 cells). The primary CLL cells and Maver-1 cells (MCL-derived) were incubated with inhibitors at 100 μM concentration or corresponding amount of solvent (DMSO, Sigma Aldrich) as 0.1×10^6 cells/200 μl per well in a 96-well plate. Experiments were performed in technical duplicates. Viability of cells was assessed after 6 hours in case of primary CLL cells and after 24 hours in case of Maver-1 cells.
(§3) Apoptosis-induced reduction of mitochondrial potential is detected as lower TMRE fluorescence. […] Relative values are presented, showing ratio to the effect of PF670462 (as the closest prior art). Relative value <1 indicates a higher cytotoxicity than PF670462.
(In general: Flow cytometry measures light scatter and fluorescence of single cells or particles in a stream.)

Assay [2] concerns Maver-1 cells (mantle cell lymphoma). The experiment in a line: Cytotoxicity, TMRE flow cytometry viability, Maver-1 cells (Example II.1). The class given is cell-based. The settings on record: Homo sapiens, Maver1, 24 hours, TMRE positive cells normalized to control, ratio to PF670462, <1 = higher cytotoxicity than PF670462, read-out: Viability of cells, Compound of formula I (100 μM), relative to PF670462 (100 μM), Maver-1 cells (mantle cell lymphoma). The protocol: as §1, §2, §3

The viability is a per cent measure of how many cells are alive, often set against a control.

As to `Fc1cccc(-c2ncn(C3CCCCC3)c2-c2ccnc3[nH]ccc23)c1` [Preparative Example 1, 4-(1-cyclohexyl-4-(3-fluorophenyl)-1H-imidazol-5-yl)-1H-pyrrolo[2,3-b]pyridine], the results for the viability at 100 µM in assay [1] and in assay [2] were 18% and 6%, respectively.
As to `Fc1ccccc1-c1ncn(C2CCCCC2)c1-c1ccnc2[nH]ccc12` [Preparative Example 2, 4-(1-cyclohexyl-4-(2-fluorophenyl)-1H-imidazol-5-yl)-1H-pyrrolo[2,3-b]pyridine], the values for the viability at 100 µM in assay [1] and in assay [2] were 37% and 32%, respectively.
Take `Fc1ccc(-c2ncn(C3CCCCC3)c2-c2ccnc3[nH]ccc23)c(F)c1` [Preparative Example 4, 4-(1-cyclohexyl-4-(2,4-difluorophenyl)-1H-imidazol-5-yl)-1H-pyrrolo[2,3-b]pyridine]: the viability at 100 µM in assay [1] and in assay [2] was 21% each time.
For the molecule `Clc1cccc(-c2ncn(C3CCCCC3)c2-c2ccnc3[nH]ccc23)c1` [Preparative Example 5, 4-(4-(3-chlorophenyl)-1-cyclohexyl-1H-imidazol-5-yl)-1H-pyrrolo[2,3-b]pyridine], the viability at 100 µM in assay [1] stood at 24%; in assay [2], 54%.
On to `Brc1cccc(-c2ncn(C3CCCCC3)c2-c2ccnc3[nH]ccc23)c1` [Preparative Example 6, 4-(4-(3-bromophenyl)-1-cyclohexyl-1H-imidazol-5-yl)-1H-pyrrolo[2,3-b]pyridine], for which the viability at 100 µM in assay [1] came to 37%; in assay [2] it was 42%.
`Clc1ccc(-c2ncn(C3CCCCC3)c2-c2ccnc3[nH]ccc23)c(Cl)c1` [Preparative Example 7]: the viability at 100 µM came out at 34% in assay [1] and 84% in assay [2].
As for `c1ccc(-c2ncn(C3CCCCC3)c2-c2ccnc3[nH]ccc23)cc1` [Preparative Example 8], the figures for the viability at 100 µM in assay [1] and in assay [2] were 32% and 4%, respectively.
For `Clc1ccc(-c2ncn(C3CCCCC3)c2-c2ccnc3[nH]ccc23)cc1` [Preparative Example 9, 4-(4-(4-chlorophenyl)-1-cyclohexyl-1H-imidazol-5-yl)-1H-pyrrolo[2,3-b]pyridine] the same measures were 50% and 30%.
The matching figures for `Brc1ccc(-c2ncn(C3CCCCC3)c2-c2ccnc3[nH]ccc23)cc1` [Preparative Example 10, 4-(4-(4-bromophenyl)-1-cyclohexyl-1H-imidazol-5-yl)-1H-pyrrolo[2,3-b]pyridine]: 61% and 46%.
On to `CC(C)(C)OC(=O)N1CCC(n2cnc(-c3ccc(F)cc3)c2-c2ccnc3[nH]ccc23)CC1` [Preparative Example 11, tert-butyl-4-(4-(4-fluorophenyl)-5-(1H-pyrrolo[2,3-b]pyridin-4-yl)-1H-imidazol-1-yl)piperidine-1-carboxylate], for which the viability at 100 µM was found to be 30% in assay [1] and 6% in assay [2].
As to `CN1CCC(n2cnc(-c3ccc(F)cc3)c2-c2ccnc3[nH]ccc23)CC1` [Preparative Example 14, 4-(4-(4-fluorophenyl)-1-(1-methylpiperidin-4-yl)-1H-imidazol-5-yl)-1H-pyrrolo[2,3-b]pyridine], the viability at 100 µM came out at 77% in assay [1] and 70% in assay [2].
As for `Fc1ccc(-c2ncn(C3CCCCCC3)c2-c2ccnc3[nH]ccc23)cc1` [Preparative Example 19, 4-(1-cycloheptyl-4-(4-fluorophenyl)-1H-imidazol-5-yl)-1H-pyrrolo[2,3-b]pyridine], the viability at 100 µM in assay [1] was 22%; in assay [2], 33%.
The matching figures for `Fc1ccc(-c2ncn(Cc3ccccc3)c2-c2ccnc3[nH]ccc23)cc1` [Preparative Example 22, 4-(1-benzyl-4-(4-fluorophenyl)-1H-imidazol-5-yl)-1H-pyrrolo[2,3-b]pyridine]: 17% and 27%.
For `CC1(C)CC(Cn2cnc(-c3ccc(F)cc3)c2-c2ccnc3[nH]ccc23)C1` [Preparative Example 29, 4-(1-((3,3-dimethylcyclobutyl)methyl)-4-(4-fluorophenyl)-1H-imidazol-5-yl)-1H-pyrrolo[2,3-b]pyridine] the same measures were 21% and 3%.
For `COC(=O)[C@H]1CC[C@@H](n2cnc(-c3ccc(F)cc3)c2-c2ccnc3[nH]ccc23)CC1` [Preparative Example 33, Methyl cis-4-(4-(4-fluorophenyl)-5-(1H-pyrrolo[2,3-b]pyridin-4-yl)-1H-imidazol-1-yl)cyclohexane-1-carboxylate] the same measures were 63% and 12%.
For the molecule `COC(=O)[C@H]1CC[C@H](n2cnc(-c3ccc(F)cc3)c2-c2ccnc3[nH]ccc23)CC1` [Preparative Example 34, Methyl trans-4-(4-(4-fluorophenyl)-5-(1H-pyrrolo[2,3-b]pyridin-4-yl)-1H-imidazol-1-yl)cyclohexane-1-carboxylate], the viability at 100 µM in assay [1] turned out to be 55%; in assay [2] it was 89%.
Turning to `Fc1ccc(-c2ncn(C3CCC(F)(F)CC3)c2-c2ccnc3[nH]ccc23)cc1` [Preparative Example 35, 4-(1-(4,4-difluorocyclohexyl)-4-(4-fluorophenyl)-1H-imidazol-5-yl)-1H-pyrrolo[2,3-b]pyridine], the results for the viability at 100 µM in assay [1] and in assay [2] were 60% and 44%, respectively.
In the case of `Fc1ccc(-c2ncn([C@H]3CC[C@H](C(F)(F)F)CC3)c2-c2ccnc3[nH]ccc23)cc1` [Preparative Example 36], the viability at 100 µM is 68% in assay [1] and 1% in assay [2].
The matching figures for `c1cc(-c2c(-c3ccsc3)ncn2C2CCCCC2)c2cc[nH]c2n1` [Preparative Example 42, 4-(1-cyclohexyl-4-(thiophen-3-yl)-1H-imidazol-5-yl)-1H-pyrrolo[2,3-b]pyridine]: 76% and 12%.
For `Fc1ccc(-c2ncn(-c3cccnc3)c2-c2ccnc3[nH]ccc23)cc1` [Preparative Example 50, 4-(4-(4-fluorophenyl)-1-(pyridin-3-yl)-1H-imidazol-5-yl)-1H-pyrrolo[2,3-b]pyridine], the viability at 100 µM came to 63% in assay [1] and 48% in assay [2].
The matching figures for `OCc1cc2c(-c3c(-c4ccc(F)cc4)ncn3C3CCCCC3)ccnc2[nH]1` [Preparative Example 56, (4-(1-cyclohexyl-4-(4-fluorophenyl)-1H-imidazol-5-yl)-1H-pyrrolo[2,3-b]pyridin-2-yl)methanol]: 67% and 79%.
For `COCc1cc2c(-c3c(-c4ccc(F)cc4)ncn3C3CCCCC3)ccnc2[nH]1` [Preparative Example 60, 4-(1-cyclohexyl-4-(4-fluorophenyl)-1H-imidazol-5-yl)-2-(methoxymethyl)-1H-pyrrolo[2,3-b]pyridine] the same measures were 93% and 84%.
The matching figures for `CS(=O)(=O)N1CCC(n2cnc(-c3ccc(F)cc3)c2-c2ccnc3[nH]ccc23)CC1` [Preparative Example 69]: 84% and 85%.
Regarding `CCOC(=O)N1CCC(n2cnc(-c3ccc(F)cc3)c2-c2ccnc3[nH]ccc23)CC1` [Preparative Example 70, Ethyl 4-(4-(4-fluorophenyl)-5-(1H-pyrrolo[2,3-b]pyridin-4-yl)-1H-imidazol-1-yl)piperidine-1-carboxylate], the viability at 100 µM in assay [1] was determined as 72%; in assay [2] it was 11%.
In the case of `Cc1ncc(Cn2cnc(-c3ccc(F)cc3)c2-c2ccnc3[nH]ccc23)s1` [Preparative Example 152, 5-((4-(4-fluorophenyl)-5-(1H-pyrrolo[2,3-b]pyridin-4-yl)-1H-imidazol-1-yl)methyl)-2-methylthiazole], the viability at 100 µM in assay [2] is 62%.
Still for that read-out and setting: the figure for `Fc1ccc(-c2ncn(Cc3ccccc3)c2-c2ccnc3[nH]ccc23)nc1` [Preparative Example 184, 4-(1-benzyl-4-(5-fluoropyridin-2-yl)-1H-imidazol-5-yl)-1H-pyrrolo[2,3-b]pyridine] is 57%.
